Literature values, collected in patent publication US11110113B2, “Compositions and methods for treating depression” (Gentelon, Inc., priority 2016, dated 2021).

Experiments:
[1] = test system: Major Depressive Disorder; conditions: trial versus placebo
cerebral tissue = conditions: six months, versus placebo; schizophrenia and Huntington's disease
[2] = test system: Major Depressive Disorder; conditions: double-blind studies; intravenous or intramuscular (parenteral)
[3] = oral SAMe

CC/C=C\C/C=C\C/C=C\C/C=C\C/C=C\C/C=C\CCC(=O)O [DHA, all-cis-4,7,10,13,16,19-docosahexaenoic acid]
efficacy in major depressive disorder / mood-disordered population [1]: negative result

CC/C=C\C/C=C\C/C=C\C/C=C\C/C=C\CCCC(=O)OCC [E-EPA]
grey and white matter (cerebral tissue): significant increase
efficacy in major depressive disorder / mood-disordered population [1]: advantage over placebo

C[S+](CC[C@H](N)C(=O)[O-])C[C@H]1O[C@@H](n2cnc3c(N)ncnc32)[C@H](O)[C@@H]1O (stereo partly shown) [SAMe, S-Adenosyl methionine]
efficacy in treatment of Major Depressive Disorder [2]: effective
half-life [3]: about 100 minutes

Nc1nc2ncc(CNc3ccc(C(=O)N[C@@H](CCC(=O)O)C(=O)O)cc3)nc2c(=O)[nH]1 [folic acid]
depression symptomatology (depression; longer term supplementation, patients with unipolar and bipolar depression): statistically significant improvements

Nc1nc2c(c(=O)[nH]1)N(C=O)C(CNc1ccc(C(=O)N[C@@H](CCC(=O)O)C(=O)O)cc1)CN2 (stereo partly shown) [folinic acid]
depression scores (depression; patients inadequately responsive to monotherapy with a serotonin reuptake inhibitor): significant reduction
